Results from PMC11652885, “Natural volatiles preventing mosquito biting: An integrated screening platform for accelerated discovery of ORco antagonists” (The Journal of Biological Chemistry, 2024).

test system: Aedes albopictus; assay: Hand in a cage repellence bioassay (human hand landing counts); assay type: in vivo; conditions: dose 50 nmole/cm^2; preliminary tests, data not shown

Structure (SMILES) | repellence index (RI)
CC(C)CCCCCCCCC=CCC#N [compound 83, 13-Methyltetradec-3-ene nitrile] | high activities
CC1(C)C2CCC1(C)C(O)C2 (centres unmarked) [compound 64, Borneol] | high activities
CC1(C)C2CC3OC3(C)C1C2 (stereo not drawn) [compound 62, α-Pinene oxide] | 30%-50%
CC(C)C/C=C1/C(=O)OCC1C (centres unmarked) [compound 98, (E)-3-Methyl-2-(3-methylbutyliden)-4-butanolide] | high activities
CC(C)=CCC[C@](C)(O)[C@@H]1CC=C(C)CC1 [compound 77, α-Bisabolol] | 30%-50%
Cc1ccc2ccccc2n1 [compound 66, 2-Methylquinoline] | high activities
CCCCC/C=C\CCO [compound 54, (Z)-3-Nonen-1-ol] | 30%-50%
CCCC=CC=CC=O [compound 39, 2,4-Octadienal] | 30%-50%
